# Data from US11442059B2, “Method for treating a chronic itch condition by administering small molecule MrgprX4 antagonists” (The Johns Hopkins University, priority 2017, dated 2022).
# Experiments:
# CD11c+MHC-IIhigh cells = assay: Calcium imaging of sorted mouse splenocytes; type: cell-based; conditions: WT CD11c+MHC-IIhigh splenocytes
# Description: In initial experiments, HEK293 cells were plated on 100 μg/ml poly-D-lysine coated glass cover slips, and transiently transfected with vector containing Mrgprs gene, after 24-48 hours of culture, cells were loaded with Fura 2-acetomethoxy ester calcium indicator (0.5 μM, Molecular Probes) along with pluronic F-127 dispersing agent (0.1%, Molecular Probes) for 30 minutes in the dark at 37° C., then washed with calcium imaging buffer (CIB; NaCl 125 mM, KCl 3 mM, CaCl2 2.5 mM, MgCl2 0.6 mM, HEPES 10 mM, glucose 20 mM, NaHCO3 1.2 mM, sucrose 20 mM, brought to pH 7.4 with NaOH). Drugs were added to Fura 2-loaded cells and intracellular free calcium was measured using 340 nm and 380 nm excitation wavelengths with emission measured at 520 nm with a microscope based imaging system (Nikon Eclipse TE200). Changes in emission fluorescence ratios at 340/380 nm excitation were continuously monitored at 1 second intervals. Later, experiments were performed using Mrgpra1-GFP, Mrgprc11-GFP and MRGPRX4-GFP stable cell lines to confirm the findings obtained from the transiently expressing cells.
# To sort different cell types of splenocytes based on CD11c and MHC-II expression, single cell suspension of mouse splenocytes was prepared as above described. Then. […]
# MRGPRX2 = molecular target: T1, MRGPRX2 (Homo sapiens, UniProt Q96LB1); assay: Cell membrane chromatography, MRGPRX2/CMC column; type: binding; conditions: affinity chromatography elution profile
# T1 construct: expressed in transfected cells; host or cells: HEK293 (MRGPRX2-HEK) membranes on silica
# T1 sequence (Q96LB1 1-330): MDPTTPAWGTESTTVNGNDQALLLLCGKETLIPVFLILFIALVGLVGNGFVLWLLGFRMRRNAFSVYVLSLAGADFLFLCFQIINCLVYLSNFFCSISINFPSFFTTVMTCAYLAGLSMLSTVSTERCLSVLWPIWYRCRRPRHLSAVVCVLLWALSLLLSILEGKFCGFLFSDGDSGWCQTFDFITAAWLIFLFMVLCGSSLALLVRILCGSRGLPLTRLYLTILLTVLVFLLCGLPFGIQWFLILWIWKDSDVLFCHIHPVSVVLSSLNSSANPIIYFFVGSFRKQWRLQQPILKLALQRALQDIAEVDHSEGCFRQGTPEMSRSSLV
# Description: CMC analysis was performed with a Shimadzu LC-2010A apparatus that consisted of pumps, degasser, autosampler, column oven, and a diode-array detector (Shimadzu, Kyoto, Japan). The data were acquired by the Lab-solution program (Shimadzu). The mobile phase consisted of phosphate-buffered saline (PBS; 5 mM, pH 7.4) and was delivered at a flow rate of 0.2 ml/min. The stock solutions (100 μM) of lamotrigine were prepared by separately dissolving the standard drugs in methanol. Standard solutions at various concentrations were prepared by diluting the stock solutions with the mobile phase. The MRGPRX2/CMC and MRGPRX4/CMC column was prepared as follows. Briefly, MRGPRX4-expressed HEK293 cells (1×10^8) were harvested and centrifuged (1000 g, 10 min, at 4° C.). Cells were washed with physiological saline (pH=7.4) by centrifugation at 1000 g for 10 min at 4° C. Cells were lysed by ultrasonic in Tris-HCl (50 mM, pH=7.4) for 30 min and centrifuged twice at 1000 g for 10 min at 4° C. The collected supernatant was then centrifuged at 12000 g for 20 min at 4° C. and the pellet was resuspended in 5 ml ice-cold physiological saline solution. […] The cell membrane suspension was homogenized/adsorbed with the activated silica under vacuum with agitation at 4° C. overnight. […]
# Mrgprc11-GFP = molecular target: T2, Mrgprc11-GFP (Mus musculus, UniProt Q8CIP3); assay: Receptor internalization assay, Mrgprc11-GFP HEK293 cells; type: cell-based; conditions: data not shown
# T2 construct: expressed in transfected cells
# T2 sequence (Q8CIP3 1-322): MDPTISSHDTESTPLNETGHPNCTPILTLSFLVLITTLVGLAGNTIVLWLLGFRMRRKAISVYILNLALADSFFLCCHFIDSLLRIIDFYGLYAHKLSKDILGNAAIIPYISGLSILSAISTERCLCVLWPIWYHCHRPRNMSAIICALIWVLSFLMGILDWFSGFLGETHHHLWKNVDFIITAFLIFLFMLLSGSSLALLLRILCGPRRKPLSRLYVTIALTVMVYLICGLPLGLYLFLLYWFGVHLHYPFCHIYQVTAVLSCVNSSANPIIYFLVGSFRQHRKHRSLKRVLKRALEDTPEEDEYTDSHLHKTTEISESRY
# Description: To label the drug with red-fluorescent dye, […] of LTG was dissolved in 50 μl dimethyformamide (DMF) first, and further diluted with 450 μl reaction buffer (0.1M sodium bicarbonate buffer, pH9.0) to obtain LTG at a concentration of 7.8 mM. Then, 50 μl of Texas-red-conjugated sulfonyl chloride (Thermo Fisher Scientific, T1905) dissolved in DMF at 10 mg ml−1 was slowly added into LTG solution. The reaction was incubated at 4° C. for 1 hour with continuous stirring. The mixture was then diluted into cell culture medium for further use. LTG labeled with Texas Red dye can create bright red-fluorescence with excitation/emission maxima ˜595/615 nm. HEK293 cells stably expressing Mrgpra1-GFP, Mrgprc11-GFP or MRGPRX4-GFP fusion protein were grown in DMEM with 10% FBS. After 4-6 hours of serum starvation, cells were treated with either medium, dye alone, unlabeled LTG or Texas-Red-labeled LTG at 37° C. for 15 or 60 min. Cells were washed with PBS and fixed with 4% paraformaldehyde in PBS. The subcellular localization of Mrgpr-GFP or drug was visualized under a confocal fluorescence microscope with a 400× magnification (Zeiss LSM 700).
compound,measurement,setting,value
"Nc1nnc(-c2cccc(Cl)c2Cl)c(N)n1 [LTG, Lamotrigine]",cells responding (Ca2+ imaging),CD11c+MHC-IIhigh cells,approximately 5%
same,retention on MRGPRX2/CMC column,MRGPRX2,cannot retain
same,internalization of Mrgprc11-GFP,Mrgprc11-GFP,did not induce the internalization
